Source: patent US20080262047A1, “Ppar-Gamma Agonists for Improvement of Cognitive Function in Apoe4 Negative Patients” (priority 2005, published 2008)
Entries after “also recorded” stand apart in the source; their conditions may differ.

How the values were obtained:
[1] = test system: patients diagnosed with mild to moderate AD; experiment: ADAS-cog (cognitive Alzheimer's Disease Assessment Scale) in Alzheimer's patients; type: in vivo, human; conditions: for Cognitive function (ADAS-cog), in words / ADAS-cog change, in words: 24 weeks; for ADAS-cog change from baseline (FIG. 3), in words: course of the study
Protocol: (§1) Analysis for the full intent to treat (ITT) population was performed on 511 subjects who were randomly allocated into one of four specific treatment regimes. Genotyping analysis was performed on 63% (323/511) of the ITT population.
(§2) Patient population included Caucasian males and females between 50-85 years of age who had been diagnosed with mild to moderate AD, were not receiving any medications which could adversely prejudice the study (e.g. PPAR-gamma agonists or conventional AD medicaments) or had any other potentially prejudicial ailments (e.g. diabetes or major psychiatric disorders).
(§3) Patients received either placebo or one of three dosage levels of extended release rosiglitazone provided once daily (2 mg, 4 mg and 8 mg tablets as described in Example 1). Patients were examined using the cognitive Alzheimer's Disease Assessment Scale (ADAS-cog; for further information see Rosen W G et al. Am. J. Psychiatry. 1984 141:1356-1364) and the Clinician's Interview-Based Impression of Change with caregiver information (CIBIC+; for further information see Knopman D S et al. Neurology 1994 44: 2315-2321); and secondary assessments were performed using: the Disability Assessment for Dementia (DAD, for further information see Gelinas L et al. Am J Occup Ther 1999 53: 471-81) and the Neuropsychiatric Inventory test (NPI, for further information see Cummings et al (1994) Neurology 44, 2308-2314) at the start of the study (baseline) and during the course of the study (after 8, 16 and 24 weeks of treatment).
(§4) APOE genotype was determined using the TaqMan PCR-based method of McLeod et al 2001 infra.
(§5) All statistics reflect last observed assessment carried forward (LOCF) measurements.
It should be noted that in the case of ADAS-cog higher scores indicate reduced cognitive function.

[2] = test system: patients diagnosed with mild to moderate AD; experiment: CIBIC+ (Clinician's Interview-Based Impression of Change with caregiver information) in Alzheimer's patients; type: in vivo, human
Protocol: as §1, §2, §3, §4, §5
Higher CIBIC+ scores indicate a greater level of decline with scores below 4 denoting clinical improvement and scores above 4 denoting clinical decline.

[3] = test system: patients diagnosed with mild to moderate AD; experiment: Disability Assessment for Dementia (DAD) in Alzheimer's patients; type: in vivo, human; conditions: week 24
Protocol: as §3
Similar results were identified using the Disability Assessment for Dementia (DAD) test (Gelinas L et al. Am J Occup Ther 1999 53: 471-81). A prospectively defined test for interaction between APOE4 carriage status and DAD scores at week 24 was significant (P=0.006).

[4] = test system: patients diagnosed with mild to moderate AD; experiment: Neuropsychiatric Inventory (NPI) test in Alzheimer's patients; type: in vivo, human; conditions: week 24
Protocol: as §3
Similar results were identified using the Neuropsychiatric Inventory (NPI) test (Cummings et al (1994) Neurology 44, 2308-2314). A prospectively defined test for interaction between APOE4 carriage status and NPI scores at week 24 was significant ([…]).

dopaminergic cells = conditions: acetaldehyde, MPTP; cited from earlier work
AD and MCI = conditions: clinical trial; cited from earlier work
[5] = test system: patients with moderate to severe AD; conditions: cited from earlier work
[6] = test system: individuals with mild cognitive impairment; conditions: at three years; cited from earlier work

CN(CCOc1ccc(CC2SC(=O)NC2=O)cc1)c1ccccn1 (stereo not drawn) [Rosi, 5-[4-[2-(N-methyl-N-(2-pyridyl)amino)ethoxy]benzyl]thiazolidine-2,4-dione]
ADAS-cog change from baseline (FIG. 2), in words ([1]; APOE4+ individuals, 2 mg, 4 mg or 8 mg, after 8 weeks): slight improvement
ADAS-cog change from baseline (FIG. 2), in words ([1]; APOE4+ individuals, 2 mg, after 16 weeks): greater decline than the placebo
ADAS-cog change from baseline (FIG. 2), in words ([1]; APOE4+ individuals, 4 mg and 8 mg, after 16 weeks, versus placebo): the same or better clinical status
ADAS-cog change from baseline (FIG. 2), in words ([1]; APOE4+ individuals, all three treatment arms, after 24 weeks): finish with a clinical decline
Cognitive function (ADAS-cog), in words ([1]; APOE4 heterozygotes (single APOE4 allele), listed as rosiglitazone): do not show any recognisable trend; also recorded: stabilisation in cognitive function
ADAS-cog change, in words ([1]; APOE4 heterozygotes, 2 mg): some decline
ADAS-cog change, in words ([1]; APOE4 heterozygotes, 4 mg and 8 mg): little change
ADAS-cog change from baseline (FIG. 3), in words ([1]; APOE4 heterozygotes, higher doses (4, 8 mg)): remained close to the baseline
Cognitive function (ADAS-cog), in words ([1]; APOE4 homozygotes (two APOE4 alleles), listed as rosiglitazone): relatively large positive change in ADAS-cog scores; also recorded: may experience a clinical decline
ADAS-cog change from baseline (FIG. 3), in words ([1]; APOE4 homozygotes): experienced a clinical decline
ADAS-cog change from baseline (FIG. 2), in words ([1]; APOE4− individuals, 2 mg, 4 mg or 8 mg, all time points (8, 16 and 24 weeks)): marked improvement
Cognitive function (ADAS-cog), in words ([1]; APOE4− patients (no APOE4 allele), listed as rosiglitazone): general trend of improvement in cognitive function; also recorded: clinically relevant improvement in cognitive function relative to placebo
ADAS-cog effect of treatment, in words ([1]; ITT population as a whole, 2, 4, 8 mg, listed as rosiglitazone): trend is not statistically significant; also recorded: non-statistically significant trend to a general improvement
CIBIC+, in words ([2]; APOE4 heterozygotes, 2 mg, 24 weeks): decline
CIBIC+, in words ([2]; APOE4 heterozygotes, 4 mg, 24 weeks): Less decline
CIBIC+, in words ([2]; APOE4 heterozygotes, 8 mg, 24 weeks): slight improvement
CIBIC+, in words ([2]; APOE4 homozygotes, 24 weeks, compared to placebo): slight improvement
CIBIC+, in words ([2]; APOE4− patients, 24 week period): slight improvement
CIBIC+ difference between treatment groups and placebo, in words ([2]; ITT population, 24 weeks): did not lead to a distinguishable difference
CIBIC+ model adjusted, LSMean (SE) ([2]; Table 13a (updated analysis, additional subjects), PGx ITT population, APOE4 copies 1, Rosi 8 mg (n = 23), after 24 weeks): 3.70 (0.24)
DAD, in words ([3]; APOE4+ subjects): demonstrated no improvement
DAD, in words ([3]; APOE4− subjects): demonstrated improvement on DAD
NPI, in words ([4]; APOE4+ subjects): demonstrated no improvement
NPI, in words ([4]; APOE4− subjects): demonstrated improvement on NPI
Protection of dopaminergic cells from toxic insults (dopaminergic cells): can protect dopaminergic cells

CS(=O)(=O)c1ccc(C2=C(c3ccccc3)C(=O)OC2)cc1 [rofecoxib]
Efficacy in AD and MCI (AD and MCI): failed to show any efficacy

CCc1ccc(CCOc2ccc(CC3SC(=O)NC3=O)cc2)nc1 (stereo not drawn) [pioglitazone, 5-[4-[2-(5-ethyl-2-pyridyl)ethoxy]benzyl]thiazolidine-2,4-dione]
Protection of dopaminergic cells from toxic insults (dopaminergic cells): can protect dopaminergic cells

CC12CC3CC(C)(C1)CC(N)(C3)C2 [memantine]
Adverse effects [5]: low incidence of adverse effects
Rate of deterioration [5]: significantly retard the rate of deterioration

COc1cc2c(cc1OC)C(=O)C(CC1CCN(Cc3ccccc3)CC1)C2 (stereo not drawn) [donepezil]
Rate at which patients developed AD [6]: no separation between groups
